Data published in ChEMBL document CHEMBL4138146, “A Schmidt rearrangement-mediated synthesis of novel tetrahydro-benzo[1,4]diazepin-5-ones as potential anticancer and antiprotozoal agents” (Eur J Med Chem, 2017).

Key:
Assay type in all cases: functional
NCI-H460 = test: Growth inhibition of human NCI-H460 cells assessed as cell growth at 10^-7 M incubated for 48 hrs by sulforhodamine B assay relative to control; conditions: NCI-H460, 48 h, read-out: Activity
SF-268 = test: Growth inhibition of human SF268 cells assessed as cell growth at 10^-7 M incubated for 48 hrs by sulforhodamine B assay relative to control; conditions: SF-268, 48 h, read-out: Activity
SNB-75 = test: Growth inhibition of human SNB75 cells assessed as cell growth at 10^-5 M incubated for 48 hrs by sulforhodamine B assay relative to control; conditions: SNB-75, 48 h, read-out: Activity
786-0 = test: Growth inhibition of human 786-0 cells assessed as cell growth at 10^-8 M incubated for 48 hrs by sulforhodamine B assay relative to control; conditions: 786-0, 48 h, read-out: Activity
MOLT-4 [1] = test: Growth inhibition of human MOLT4 cells assessed as cell growth at 10^-8 M incubated for 48 hrs by sulforhodamine B assay relative to control; conditions: MOLT-4, 48 h, read-out: Activity
SK-MEL-28 [2] = test: Growth inhibition of human SK-MEL-28 cells assessed as cell growth at 10^-4 M incubated for 48 hrs by sulforhodamine B assay relative to control; conditions: SK-MEL-28, 48 h, read-out: Activity
HCT-116 = test: Growth inhibition of human HCT116 cells assessed as cell growth at 10^-8 M incubated for 48 hrs by sulforhodamine B assay relative to control; conditions: HCT-116, 48 h, read-out: Activity
BT-549 = test: Growth inhibition of human BT549 cells assessed as cell growth at 10^-5 M incubated for 48 hrs by sulforhodamine B assay relative to control; conditions: BT-549, 48 h, read-out: Activity
SK-OV-3 = test: Growth inhibition of human SKOV3 cells assessed as cell growth at 10^-4 M incubated for 48 hrs by sulforhodamine B assay relative to control; conditions: SK-OV-3, 48 h, read-out: Activity
Hs-578T [3] = test: Growth inhibition of human Hs 578T cells assessed as cell growth at 10^-6 M incubated for 48 hrs by sulforhodamine B assay relative to control; conditions: read-out: Activity
A498 = test: Growth inhibition of human A498 cells assessed as cell growth at 10^-7 M incubated for 48 hrs by sulforhodamine B assay relative to control; conditions: A498, 48 h, read-out: Activity
SK-MEL-28 [4] = test: Growth inhibition of human SK-MEL-28 cells assessed as cell growth at 10^-7 M incubated for 48 hrs by sulforhodamine B assay relative to control; conditions: SK-MEL-28, 48 h, read-out: Activity
CCRF-CEM [5] = test: Growth inhibition of human CCRF-CEM cells assessed as cell growth at 10^-5 M incubated for 48 hrs by sulforhodamine B assay relative to control; conditions: read-out: Activity
SW-620 = test: Growth inhibition of human SW620 cells assessed as cell growth at 10^-5 M incubated for 48 hrs by sulforhodamine B assay relative to control; conditions: SW-620, 48 h, read-out: Activity
HT-29 [6] = test: Growth inhibition of human HT-29 cells assessed as cell growth at 10^-8 M incubated for 48 hrs by sulforhodamine B assay relative to control; conditions: HT-29, 48 h, read-out: Activity
MOLT-4 [7] = test: Growth inhibition of human MOLT4 cells assessed as cell growth at 10^-4 M incubated for 48 hrs by sulforhodamine B assay relative to control; conditions: MOLT-4, 48 h, read-out: Activity
Malme-3M = test: Growth inhibition of human MALME-3M cells assessed as cell growth at 10^-8 M incubated for 48 hrs by sulforhodamine B assay relative to control; conditions: read-out: Activity
CCRF-CEM [8] = test: Growth inhibition of human CCRF-CEM cells assessed as cell growth at 10^-7 M incubated for 48 hrs by sulforhodamine B assay relative to control; conditions: read-out: Activity
SK-MEL-28 [9] = test: Growth inhibition of human SK-MEL-28 cells assessed as cell growth at 10^-6 M incubated for 48 hrs by sulforhodamine B assay relative to control; conditions: SK-MEL-28, 48 h, read-out: Activity
HT-29 [10] = test: Growth inhibition of human HT-29 cells assessed as cell growth at 10^-5 M incubated for 48 hrs by sulforhodamine B assay relative to control; conditions: HT-29, 48 h, read-out: Activity
MDA-MB-231 [11] = test: Growth inhibition of human MDA-MB-231 cells assessed as cell growth at 10^-5 M incubated for 48 hrs by sulforhodamine B assay relative to control; conditions: MDA-MB-231, 48 h, read-out: Activity
SR [12] = test: Growth inhibition of human SR cells assessed as cell growth at 10^-6 M incubated for 48 hrs by sulforhodamine B assay relative to control; conditions: read-out: Activity
OVCAR-4 = test: Growth inhibition of human OVCAR4 cells assessed as cell growth at 10^-7 M incubated for 48 hrs by sulforhodamine B assay relative to control; conditions: OVCAR-4, 48 h, read-out: Activity
PC-3 = test: Growth inhibition of human PC3 cells assessed as cell growth at 10^-7 M incubated for 48 hrs by sulforhodamine B assay relative to control; conditions: PC-3, 48 h, read-out: Activity
Hs-578T [13] = test: Growth inhibition of human Hs 578T cells assessed as cell growth at 10^-4 M incubated for 48 hrs by sulforhodamine B assay relative to control; conditions: read-out: Activity
SK-MEL-5 = test: Growth inhibition of human SK-MEL-5 cells assessed as cell growth at 10^-5 M incubated for 48 hrs by sulforhodamine B assay relative to control; conditions: SK-MEL-5, 48 h, read-out: Activity
K562 [14] = test: Growth inhibition of human K562 cells assessed as cell growth at 10^-6 M incubated for 48 hrs by sulforhodamine B assay relative to control; conditions: K562, 48 h, read-out: Activity
SR [15] = test: Growth inhibition of human SR cells assessed as cell growth at 10^-7 M incubated for 48 hrs by sulforhodamine B assay relative to control; conditions: read-out: Activity
MDA-MB-231 [16] = test: Growth inhibition of human MDA-MB-231 cells assessed as cell growth at 10^-4 M incubated for 48 hrs by sulforhodamine B assay relative to control; conditions: MDA-MB-231, 48 h, read-out: Activity
A549 [17] = test: Growth inhibition of human A549/ATCC cells assessed as cell growth at 10^-7 M incubated for 48 hrs by sulforhodamine B assay relative to control; conditions: A549, 48 h, read-out: Activity
A549 [18] = test: Growth inhibition of human A549/ATCC cells assessed as cell growth at 10^-4 M incubated for 48 hrs by sulforhodamine B assay relative to control; conditions: A549, 48 h, read-out: Activity
K562 [19] = test: Growth inhibition of human K562 cells assessed as cell growth at 10^-5 M incubated for 48 hrs by sulforhodamine B assay relative to control; conditions: K562, 48 h, read-out: Activity
CCRF-CEM [20] = test: Growth inhibition of human CCRF-CEM cells assessed as cell growth at 10^-6 M incubated for 48 hrs by sulforhodamine B assay relative to control; conditions: read-out: Activity
SK-MEL-28 [21] = test: Growth inhibition of human SK-MEL-28 cells assessed as cell growth at 10^-8 M incubated for 48 hrs by sulforhodamine B assay relative to control; conditions: SK-MEL-28, 48 h, read-out: Activity
HCC 2998 = test: Growth inhibition of human HCC2998 cells assessed as cell growth at 10^-6 M incubated for 48 hrs by sulforhodamine B assay relative to control; conditions: HCC 2998, 48 h, read-out: Activity

Compound `CCCCOc1nc2ccccc2cc1C1CNC(=O)c2ccccc2N1` (stereo not given) has a growth at 0.1 µM (NCI-H460) of 102%, a growth at 0.1 µM (SF-268) of 92% and a growth at 10 µM (SNB-75) of 13%. It also gave a growth at 0.01 µM (786-0) of 99%, a growth at 0.01 µM (MOLT-4 [1]) of 70% and a growth at 100 µM (SK-MEL-28 [2]) of -57%. The growth at 0.01 µM (HCT-116) was 101%, the growth at 10 µM (BT-549) was 36% and the growth at 100 µM (SK-OV-3) was -21%. It also gave a growth at 1 µM (Hs-578T [3]) of 73%, a growth at 0.1 µM (A498) of 62% and a growth at 0.1 µM (SK-MEL-28 [4]) of 98%. For the same compound, the growth at 10 µM (CCRF-CEM [5]) was 11%, the growth at 10 µM (SW-620) was 18% and the growth at 0.01 µM (HT-29 [6]) was 94%. The growth at 100 µM (MOLT-4 [7]) was -37%, the growth at 0.01 µM (Malme-3M) was 88% and the growth at 0.1 µM (CCRF-CEM [8]) was 100%. The growth at 1 µM (SK-MEL-28 [9]) was 71%, the growth at 10 µM (HT-29 [10]) was 3% and the growth at 10 µM (MDA-MB-231 [11]) was 25%. It also gave a growth at 1 µM (SR [12]) of 55%, a growth at 0.1 µM (OVCAR-4) of 98% and a growth at 0.1 µM (PC-3) of 97%. The growth at 100 µM (Hs-578T [13]) was -25%, the growth at 10 µM (SK-MEL-5) was 10% and the growth at 1 µM (K562 [14]) was 46%. For the same compound, the growth at 0.1 µM (SR [15]) was 64%, the growth at 100 µM (MDA-MB-231 [16]) was -53% and the growth at 0.1 µM (A549 [17]) was 100%. It also gave a growth at 100 µM (A549 [18]) of -75%, a growth at 10 µM (K562 [19]) of 7% and a growth at 1 µM (CCRF-CEM [20]) of 85%. It also gave a growth at 0.01 µM (SK-MEL-28 [21]) of 103% and a growth at 1 µM (HCC 2998) of 93%.
